The values below come from patent US20240327429A1, “[1,3]Thiazolo[4,5-d]-pyrimidon-7-ones as inhibitors of NOX4” (Boehringer Ingelheim International GmbH, priority 2023, published 2024).

What is called IC50 is the point on the concentration scale where inhibition reaches its midpoint. A higher IC50 goes with a need for much substance.

Test [1] addresses T1, human NOX1 (hNOX1) (Homo sapiens, UniProt Q9Y5S8).
T1 construct: pLV-CMV-hNOX1-puro (NM_007052.5); host or cells: HEK293 (CLS GmbH), lentiviral transduction
T1 sequence (Q9Y5S8 1-564): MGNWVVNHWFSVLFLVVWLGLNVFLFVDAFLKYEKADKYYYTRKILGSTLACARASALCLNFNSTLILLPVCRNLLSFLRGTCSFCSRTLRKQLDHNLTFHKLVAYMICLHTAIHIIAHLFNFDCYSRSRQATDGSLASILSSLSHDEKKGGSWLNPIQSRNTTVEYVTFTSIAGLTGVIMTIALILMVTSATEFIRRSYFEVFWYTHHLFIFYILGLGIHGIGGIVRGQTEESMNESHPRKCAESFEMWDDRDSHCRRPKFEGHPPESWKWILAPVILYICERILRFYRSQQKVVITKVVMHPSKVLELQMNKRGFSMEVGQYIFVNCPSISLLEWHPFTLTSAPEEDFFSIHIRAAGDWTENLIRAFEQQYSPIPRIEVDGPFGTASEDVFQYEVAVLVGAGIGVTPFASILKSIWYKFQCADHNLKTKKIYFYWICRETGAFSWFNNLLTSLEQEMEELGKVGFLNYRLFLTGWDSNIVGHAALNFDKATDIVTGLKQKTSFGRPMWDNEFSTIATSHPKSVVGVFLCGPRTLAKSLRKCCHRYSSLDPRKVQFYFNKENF
T1 sequence (P13498 2-195 partner limits assumed): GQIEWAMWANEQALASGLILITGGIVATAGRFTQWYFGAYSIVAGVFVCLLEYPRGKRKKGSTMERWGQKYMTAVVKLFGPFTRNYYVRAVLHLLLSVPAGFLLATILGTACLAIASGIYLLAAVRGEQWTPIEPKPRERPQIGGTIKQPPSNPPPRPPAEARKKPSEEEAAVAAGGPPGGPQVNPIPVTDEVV
The test is described as follows: NOX1 inhibition assay (L-012), HEK293 cells stably overexpressing human NOX1. The format is cell-based. Particulars: HEK293-hNOX1, PMA stimulated. The source says: Plasmids are Purchased from Vectorbuilder. • for HEK-hNOX1 all necessary subunits are cloned accordingly: • pLV-CMV-hNOX1-puro (NM_007052.5) • pLV-CMV-hNOXO1-blas (NM_172168.3) • pLV-CMV-hp22phox-hygro (NM_000101.4) • pLV-CMV-hNOXA1-neo (NM_006647.2) • for HEK-hNOX3 • pLV-CMV-hNOX3-puro (NM_015718.3)
3rd generation lentiviral particles are produced in HEK293 suspension cells by transient transfection of three helper and expression plasmids. Crucial lentivirus supernatants are harvested, clarified by filtration and concentrated by precipitation. Lentivirus titers are determined in transducing units in (TU/mL) by transduction of HT1080 cells and colony forming assay. Parental HEK293 cells, purchased from CLS GmbH, are transduced with replication-incompetent 3rd generation lentiviral particles (MOI 2) and expanded for at least 2 weeks before cryopreservation of tested lots. During cultivation, medium is changed three times per week and cells are sub-cultured at least once per week. Selection antibiotics are added according to the plasmids (1 μg/ml puromycin, 1.5 μg/ml blasticidin, 200 μg/ml G418 and 100 μg/ml hygromycin).
Evaluation of the NOX4 inhibitors on NOX1 activity is assessed in HEK293 cells stably overexpressing human NOX1 (hNOX1).
Lastly, 8-amino-5-chloro-2,3-dihydro-7-phenyl-pyrido[3,4-d]pyridazine-1,4-dione sodium salt (L-012, CAS 143556-24-5) is added at 400 μM to all wells, and cells are incubated in an incubator for an additional 3 h. Afterwards luminescence is measured with a SpectraMax Paradigm Microplate Reader.

Test [2] has as its target T2, human NOX5 (hNOX5) (Homo sapiens, UniProt Q96PH1).
T2 construct: expressed in transfected cells; host or cells: HEK293
T2 sequence (Q96PH1 1-765): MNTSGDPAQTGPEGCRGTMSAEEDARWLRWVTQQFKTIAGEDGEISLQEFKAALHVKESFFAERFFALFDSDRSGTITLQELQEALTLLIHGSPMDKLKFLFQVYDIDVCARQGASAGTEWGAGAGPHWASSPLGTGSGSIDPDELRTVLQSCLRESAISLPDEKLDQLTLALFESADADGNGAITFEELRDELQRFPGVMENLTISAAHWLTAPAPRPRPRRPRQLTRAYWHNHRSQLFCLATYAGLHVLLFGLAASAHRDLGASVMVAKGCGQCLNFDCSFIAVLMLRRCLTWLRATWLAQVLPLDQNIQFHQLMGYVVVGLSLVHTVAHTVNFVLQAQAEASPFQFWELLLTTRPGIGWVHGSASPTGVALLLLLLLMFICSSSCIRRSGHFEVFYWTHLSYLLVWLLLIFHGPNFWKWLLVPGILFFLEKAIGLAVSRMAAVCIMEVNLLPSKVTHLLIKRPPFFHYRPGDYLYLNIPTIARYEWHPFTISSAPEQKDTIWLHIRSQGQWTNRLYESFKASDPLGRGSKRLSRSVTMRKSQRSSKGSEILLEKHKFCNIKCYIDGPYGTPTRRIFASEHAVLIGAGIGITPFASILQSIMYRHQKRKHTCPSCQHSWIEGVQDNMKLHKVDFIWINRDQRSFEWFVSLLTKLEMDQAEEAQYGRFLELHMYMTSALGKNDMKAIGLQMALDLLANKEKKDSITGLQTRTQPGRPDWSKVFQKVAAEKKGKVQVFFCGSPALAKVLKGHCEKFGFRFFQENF
The test is described as follows: NOX5 inhibition assay (L-012), HEK293 cells stably overexpressing human NOX5. The format is cell-based. Particulars: HEK293-hNOX5, PMA stimulated. As to the method:
The synthetic gene hNOX5 (Accession: Q96PH1) is cloned into pcDNA3.1_Zeo. […] The final construct is verified by sequencing.
Evaluation of the NOX4 inhibitors on NOX5 activity is assessed in HEK293 cells stably overexpressing human NOX5 (hNOX5).
Cells are seeded in 384 well plates over-night. […] Cells are then stimulated with PMA at 0.1 μM to induce NOX5-dependent ROS production. […] Luminescence is measured with an PHERAstar multimode reader.

In the case of `Cc1cc(Cl)ccc1CSc1nc2ncsc2c(=O)n1-c1cc(F)c(O)c(F)c1` [Example 3], the IC50 in test [1] is 1.7 µM; in test [2] it was > 100 µM.

With `O=c1c2scnc2nc(SCc2c(F)cc(F)cc2F)n1-c1cc(F)c(O)nc1F` [Example 51, 6-(2,5-Difluoro-6-hydroxypyridin-3-yl)-5-((2,4,6-trifluorobenzyl)thio)thiazolo[4,5-d]-pyrimidin-7(6H)-one], the IC50 was 3 µM in test [1] and 59.4 µM in test [2].

For the compound `O=c1c2scnc2nc(SCc2ccc(Cl)cc2)n1-c1ccc(O)nc1` [Example 25], the concentration for half-maximal inhibition (IC50) in test [1] and in test [2] was > 100 µM throughout.

On to `O=c1c2scnc2nc(SCc2c(F)cc(F)cc2F)n1-c1ccc(O)cc1` [Example 15], for which the IC50 in test [1] amounted to 4.1 µM; in test [2], 59 µM.

`O=c1c2scnc2nc(SCc2ccc(C(F)(F)F)cc2F)n1-c1cnc(O)c(F)c1` [Example 42]: the IC50 in test [1] is 5.6 µM; in test [2] it was 46.8 µM.

On to `O=c1c2scnc2nc(SCc2c(F)cc(F)cc2F)n1-c1cnc(O)c(F)c1F` [Example 52, 6-(4,5-Difluoro-6-hydroxypyridin-3-yl)-5-((2,4,6-trifluorobenzyl)thio)thiazolo[4,5-d]-pyrimidin-7(6H)-one], for which the results for the IC50 in test [1] and in test [2] were 21.2 µM and 38.9 µM, respectively.

As for `N#Cc1cc(-n2c(SCc3c(F)cc(F)cc3F)nc3ncsc3c2=O)ccc1O` [Example 18], the results for the IC50 in test [1] and in test [2] were 0.06 µM and > 100 µM, respectively.

For `N#Cc1cc(-n2c(SCc3c(F)cc(F)cc3F)nc3ncsc3c2=O)cnc1O` [Example 47, 2-Hydroxy-5-(7-oxo-5-((2,4,6-trifluorobenzyl)thio)thiazolo[4,5-d]pyrimidin-6(7H)-yl)-nicotinonitrile], the IC50 was 4.9 µM in test [1] and > 100 µM in test [2].

On to `O=c1c2scnc2nc(SCc2c(F)cc(F)cc2Cl)n1-c1cnc(O)c(F)c1` [Example 41], for which the IC50 in test [1] worked out at 9.8 µM; in test [2] it was 35.8 µM.

Take `O=c1c2scnc2nc(SCc2ccc(C(F)(F)F)cc2Cl)n1-c1cnc(O)c(F)c1` [Example 46]: the values for the IC50 in test [1] and in test [2] were 48.4 µM and 44.7 µM, respectively.

`O=c1c2scnc2nc(SCc2c(F)cc(F)cc2F)n1-c1cnc(O)c(Cl)c1` [Example 48, 6-(5-Chloro-6-hydroxypyridin-3-yl)-5-((2,4,6-trifluorobenzyl)thio)thiazolo[4,5-d]pyri-midin-7(6H)-one]: the values for the IC50 in test [1] and in test [2] were 36.7 µM and > 100 µM, respectively.

`O=c1c2scnc2nc(SCc2ccc(C(F)(F)F)cc2)n1-c1cc(F)c(O)c(F)c1` [Example 7]: the IC50 in test [1] and in test [2] was > 100 µM each time.

On to `Cc1c(F)cccc1CSc1nc2ncsc2c(=O)n1-c1cnc(O)c(F)c1` [Example 40], for which the IC50 in test [1] is 32.9 µM; in test [2] it was 56.3 µM.

Turning to `Cc1cc(F)ccc1CSc1nc2ncsc2c(=O)n1-c1ccc(O)nn1` [Example 68], the IC50 is 11 µM in test [1] and > 100 µM in test [2].

With `O=c1c2scnc2nc(SCc2c(F)cc(F)cc2F)n1-c1ccc(O)cn1` [Example 19], the IC50 in test [1] is 16.9 µM; in test [2], > 100 µM.

For `Cc1cc(F)ccc1CSc1nc2ncsc2c(=O)n1-c1cnc(O)c(F)c1` [Example 36], the IC50 in test [1] and in test [2] was > 100 µM throughout.

As for `O=c1c2scnc2nc(SCc2ccc(C(F)(F)F)cc2)n1-c1cnc(O)c(F)c1` [Example 32, 6-(5-Fluoro-6-hydroxypyridin-3-yl)-5-((4-(trifluoromethyl)benzyl)thio)thiazolo[4,5-d]pyrimidin-7(6H)-one], the IC50 in test [1] is > 100 µM; in test [2] it was 55.7 µM.

With `O=c1c2scnc2nc(SCc2ccc(Br)cc2F)n1-c1cnc(O)c(F)c1` [Example 34], the IC50 in test [1] is 14.7 µM; in test [2], 46.5 µM.

Take `Cc1cc(Cl)ccc1CSc1nc2ncsc2c(=O)n1-c1ccc(O)nc1` [Example 23]: the IC50 in test [1] is 48.1 µM; in test [2], > 100 µM.

For `Cc1cc(Cl)ccc1CSc1nc2ncsc2c(=O)n1-c1ccc(O)nn1` [Example 62], the concentration for half-maximal inhibition (IC50) in test [1] and in test [2] was > 100 µM each time.

Consider `O=c1c2scnc2nc(SCc2ccc(Cl)cc2Cl)n1-c1cnc(O)c(F)c1` [Example 39], for which the IC50 in test [1] came to 24.5 µM; in test [2], 47.9 µM.

For `O=c1c2scnc2nc(SCc2ccc(C(F)(F)F)cc2)n1-c1ccc(O)nn1` [Example 66], the figures for the IC50 in test [1] and in test [2] were > 100 µM and 74.8 µM, respectively.

On to `O=c1c2scnc2nc(SCc2ccc(F)cc2Br)n1-c1cnc(O)c(F)c1` [Example 44], for which the IC50 was 43.2 µM in test [1] and 68.1 µM in test [2].

On to `O=c1c2scnc2nc(SCc2c(F)cc(F)cc2F)n1-c1c(F)cc(O)cc1F` [Example 13], for which the results for the IC50 in test [1] and in test [2] were 3.2 µM and 5.1 µM, respectively.

For `O=c1c2scnc2nc(SCc2c(F)cc(F)cc2F)n1-c1ccc(O)nc1F` [Example 50, 6-(2-Fluoro-6-hydroxypyridin-3-yl)-5-((2,4,6-trifluorobenzyl)thio)thiazolo[4,5-d]-pyrimidin-7(6H)-one], the values for the IC50 in test [1] and in test [2] were 27.6 µM and 60.2 µM, respectively.

Regarding `O=c1c2scnc2nc(SCc2ccc(Cl)cc2F)n1-c1cnc(O)c(F)c1` [Example 35], the figures for the IC50 in test [1] and in test [2] were > 100 µM and 65.5 µM, respectively.

On to `O=c1c2scnc2nc(SCc2c(F)cc(F)cc2F)n1-c1ccc(O)cc1F` [Example 14], for which the IC50 was determined as 2.3 µM in test [1] and 10.2 µM in test [2].

In the case of `Cc1cc(F)ccc1CSc1nc2ncsc2c(=O)n1-c1cnc(O)nc1` [Example 58], the IC50 in test [1] is 11.8 µM; in test [2], > 100 µM.

Consider `Cc1cc(F)ccc1CSc1nc2ncsc2c(=O)n1-c1cc(F)c(O)c(F)c1` [Example 9], for which the IC50 was 1.9 µM in test [1] and > 100 µM in test [2].

With `Cc1cc(F)cc(C)c1CSc1nc2ncsc2c(=O)n1-c1cnc(O)nc1` [Example 55], the IC50 in test [1] amounted to 16.5 µM; in test [2], 85.8 µM.

As for `O=c1c2scnc2nc(SCc2ccc(Cl)cc2)n1-c1cc(F)c(O)c(F)c1` [Example 5], the IC50 in test [1] is 0.3 µM; in test [2], > 100 µM.
